PMC8586704 (Frontiers in Chemistry, 2021)
Converted amounts (≈) assume the structure as drawn. Where two headings read alike, the source gives them in different places. Starred links: 1 amine or outer side, 2 acyl side, 3 side chain; linkers in the order of their positions; H or OH if unused. Non-standard residues stand in square brackets, D forms with d. Residues, ends and D or L forms follow the SMILES beside them. *: point of attachment. X8 = O=C(CCc1c[nH]c2ccccc12)Oc1ccc(C[C@H](N[*:1])C(=O)[*:2])cc1[N+](=O)[O-]; X2 = COC(=O)[C@@H](NC(=O)[C@@H](C)C[C@@H](C(=O)[*:2])N(C)[*:1])[C@@H](C)O; X3 = O=C(Cc1ccc(F)cc1)Oc1ccc(C[C@H](N[*:1])C(=O)[*:2])cc1[N+](=O)[O-]; Trp(1-(1,1-Me2-allyl)) = C=CC(C)(C)n1cc(C[C@H](N)C(=O)O)c2ccccc21; X5 = O=C(Oc1ccc(C[C@H](N[*:1])C(=O)[*:2])cc1[N+](=O)[O-])c1cnccn1; NMeGlu(4S-Me) = C[C@@H](C[C@@H](C(=O)[*:2])N(C)[*:1])C(=O)[*:3]; X9 = CSCCC(=O)Oc1ccc(C[C@H](N[*:1])C(=O)[*:2])cc1[N+](=O)[O-]; Tyr(3-NO2) = N[C@@H](Cc1ccc(O)c([N+](=O)[O-])c1)C(=O)O; X7 = O=C1O[C@@H](CN*)CN1c1ccc(N2CCOCC2)c(F)c1; Gly(E-crotyl) = C/C=C/C[C@H](N)C(=O)O; NMeL = CN[C@@H](CC(C)C)C(=O)O

Tests used:
L02 = assay: cells; format: cell-based; conditions: normal human hepatic cell line
HCT116 = assay: cells; format: cell-based; conditions: Homo sapiens, HCT-116; colon cancer cell line
HeLa = assay: cells; format: cell-based; conditions: Homo sapiens, cervical carcinoma cell line
HepG2 = assay: cells; format: cell-based; conditions: Homo sapiens, hepatocellular carcinoma cell line
A549 = assay: Cytotoxicity assay (CCK-8); format: cell-based; conditions: Homo sapiens, lung cancer cell line
[1] = tested on: five human cancer cell lines and two normal cell lines; assay: cells
MCF-7 = assay: cells; format: cell-based; conditions: Homo sapiens, MCF7; breast adenocarcinoma cell line
[2] = tested on: five human cancer cell lines and two normal cell lines; conditions: MCF-7, A549, HCT116, L02
Huvec-12 = assay: Cytotoxicity assay (CCK-8); format: cell-based; conditions: normal human umbilical vein endothelial cell line
M. tuberculosis H37Rv [3] = assay: Antitubercular activity assay, broth dilution, auto-luminescent strain; format: cell-based, Mycobacterium tuberculosis
M. tuberculosis H37Rv [4] = tested on: M. tuberculosis H37Rv; set-up: method as in Ma et al., 2017; conditions: ref Ma et al., 2017; cited from earlier work
[5] = Mycobacterium tuberculosis, H37RV, Day 7th, read-out: MICs against H37Rv, Day 7th
[6] = Mycobacterium tuberculosis, H37RV, Day 14th, read-out: MICs against H37Rv, Day 14th
[7] = Mycobacterium tuberculosis, H37RV, Day 3rd, read-out: MICs against H37Rv, Day 3rd

| Compound | IC50 (L02) [µM] | IC50 (HCT116) [µM] | IC50 (HeLa) [µM] | IC50 (HepG2) [µM] | IC50 (A549) [µM] | IC50 ([1]; read-out: IC50 against MCF-7, A549, HCT116, and L02) [µM] | IC50 ([1]; read-out: IC50 against five human cancer cell lines and two normal cell lines) [µM] | IC50 (MCF-7) [µM] | promotion of cytotoxicity compared with ilamycin F [2] | IC50 (Huvec-12) [µM] | MIC (M. tuberculosis H37Rv [3]; Day 14th, read-out: MICs against H37Rv, Day 14th) [µM] | MIC (M. tuberculosis H37Rv [3]; [5]) [µM] | MIC (M. tuberculosis H37Rv [3]; [6]) [µM] | MIC (M. tuberculosis H37Rv [3]; Mycobacterium tuberculosis, H37RV, read-out: MICs against H37Rv, Day 3rd) [µM] | MIC (M. tuberculosis H37Rv [3]; Mycobacterium tuberculosis, H37RV, read-out: MICs against H37Rv, Day 7th) [µM] | MIC (M. tuberculosis H37Rv [3]; Mycobacterium tuberculosis, H37RV, read-out: MICs against H37Rv, Day 14th) [µM] | MIC (M. tuberculosis H37Rv [3]; [7]) [µM] | MIC against M. tuberculosis H37Rv (M. tuberculosis H37Rv [4]) [µM] |
| --- | --- | --- | --- | --- | --- | --- | --- | --- | --- | --- | --- | --- | --- | --- | --- | --- | --- | --- |
| C=CC(C)(C)n1cc(C[C@@H]2NC(=O)[C@H](C/C=C/C)NC(=O)[C@H](CC(C)C)NC(=O)[C@H](C[C@H](C)C(=O)N[C@H](C(=O)OC)[C@@H](C)O)N(C)C(=O)[C@H](C)NC(=O)[C@H](Cc3ccc(O)c([N+](=O)[O-])c3)NC(=O)[C@H](CC(C)C)N(C)C2=O)c2ccccc21 [Compound 1, ilamycin NJL1] (cyclo(A[X2]L[Gly(E-crotyl)][Trp(1-(1,1-Me2-allyl))][NMeL][Tyr(3-NO2)])) | 6.5 | 7.2 | 11.3 | 17.7 | 5.7 | 5.7 to 9 | 5.7 to 11.3 | 9 | 3–8 fold | 10.3 | 1.7 (≈ 1.97 µg/mL) | 1.7 (≈ 1.97 µg/mL) | 1.6 to 1.7 (≈ 1.85 to 1.97 µg/mL) |  |  |  |  |  |
| C=CC(C)(C)n1cc(C[C@@H]2NC(=O)[C@H](C/C=C/C)NC(=O)[C@H](CC(C)C)NC(=O)[C@H](C[C@H](C)C(=O)NC[C@H]3CN(c4ccc(N5CCOCC5)c(F)c4)C(=O)O3)N(C)C(=O)[C@H](C)NC(=O)[C@H](Cc3ccc(O)c([N+](=O)[O-])c3)NC(=O)[C@H](CC(C)C)N(C)C2=O)c2ccccc21 [Compound 14, ilamycin NJL14] (cyclo(A[NMeGlu(4S-Me)](X7)L[Gly(E-crotyl)][Trp(1-(1,1-Me2-allyl))][NMeL][Tyr(3-NO2)])) | > 50 | > 50 | > 50 | > 50 | > 50 |  |  | > 50 |  | > 50 |  |  |  | 48.5 (≈ 64 µg/mL) | 48.5 (≈ 64 µg/mL) | 48.5 (≈ 64 µg/mL) |  |  |
| C=CC(C)(C)n1cc(C[C@@H]2NC(=O)[C@H](C/C=C/C)NC(=O)[C@H](CC(C)C)NC(=O)[C@H](C[C@H](C)C(=O)O)N(C)C(=O)[C@H](C)NC(=O)[C@H](Cc3ccc(OC(=O)c4cnccn4)c([N+](=O)[O-])c3)NC(=O)[C@H](CC(C)C)N(C)C2=O)c2ccccc21 [Compound 15, ilamycin NJL15] (cyclo(A[NMeGlu(4S-Me)]L[Gly(E-crotyl)][Trp(1-(1,1-Me2-allyl))][NMeL][X5])) | > 50 | > 50 | > 50 | > 50 | > 50 |  |  | > 50 |  | > 50 |  | 27.9 (≈ 32 µg/mL) | 27.9 (≈ 32 µg/mL) |  |  |  | 27.9 (≈ 32 µg/mL) |  |
| C=CC(C)(C)n1cc(C[C@@H]2NC(=O)[C@H](C/C=C/C)NC(=O)[C@H](CC(C)C)NC(=O)[C@H](C[C@H](C)C(=O)O)N(C)C(=O)[C@H](C)NC(=O)[C@H](Cc3ccc(OC(=O)CCc4c[nH]c5ccccc45)c([N+](=O)[O-])c3)NC(=O)[C@H](CC(C)C)N(C)C2=O)c2ccccc21 [Compound 16, ilamycin NJL16] (cyclo(A[NMeGlu(4S-Me)]L[Gly(E-crotyl)][Trp(1-(1,1-Me2-allyl))][NMeL][X8])) | > 50 | > 50 | > 50 | > 50 | > 50 |  |  | > 50 |  | > 50 |  | 26.4 (≈ 32 µg/mL) | 26.4 (≈ 32 µg/mL) |  |  |  | 26.4 (≈ 32 µg/mL) |  |
| C=CC(C)(C)n1cc(C[C@@H]2NC(=O)[C@H](C/C=C/C)NC(=O)[C@H](CC(C)C)NC(=O)[C@H](C[C@H](C)C(=O)O)N(C)C(=O)[C@H](C)NC(=O)[C@H](Cc3ccc(OC(=O)Cc4ccc(F)cc4)c([N+](=O)[O-])c3)NC(=O)[C@H](CC(C)C)N(C)C2=O)c2ccccc21 [Compound 17, ilamycin NJL17] (cyclo(A[NMeGlu(4S-Me)]L[Gly(E-crotyl)][Trp(1-(1,1-Me2-allyl))][NMeL][X3])) | > 50 | > 50 | > 50 | > 50 | > 50 |  |  | > 50 |  | > 50 |  | 27.2 (≈ 32.1 µg/mL) | 27.2 (≈ 32.1 µg/mL) |  |  |  | 27.2 (≈ 32.1 µg/mL) |  |
| C=CC(C)(C)n1cc(C[C@@H]2NC(=O)[C@H](C/C=C/C)NC(=O)[C@H](CC(C)C)NC(=O)[C@H](C[C@H](C)C(=O)O)N(C)C(=O)[C@H](C)NC(=O)[C@H](Cc3ccc(OC(=O)CCSC)c([N+](=O)[O-])c3)NC(=O)[C@H](CC(C)C)N(C)C2=O)c2ccccc21 [Compound 18, ilamycin NJL18] (cyclo(A[NMeGlu(4S-Me)]L[Gly(E-crotyl)][Trp(1-(1,1-Me2-allyl))][NMeL][X9])) | > 50 | > 50 | > 50 | > 50 | > 50 |  |  | > 50 |  | > 50 |  | 28 (≈ 32 µg/mL) | 28 (≈ 32 µg/mL) |  |  |  | 28 (≈ 32 µg/mL) |  |
| C=CC(C)(C)n1cc(C[C@@H]2NC(=O)[C@H](C/C=C/C)NC(=O)[C@H](CC(C)C)NC(=O)[C@H](C[C@H](C)C(=O)O)N(C)C(=O)[C@H](C)NC(=O)[C@H](Cc3ccc(O)c([N+](=O)[O-])c3)NC(=O)[C@H](CC(C)C)N(C)C2=O)c2ccccc21 [ilamycin F, reference compound] (cyclo(A[NMeGlu(4S-Me)]L[Gly(E-crotyl)][Trp(1-(1,1-Me2-allyl))][NMeL][Tyr(3-NO2)])) | 43.9 | 44.8 | 31 | > 50 | 47 |  |  | 32.2 |  | 46.1 |  | 15.4 (≈ 16.1 µg/mL) | 1.9 (≈ 1.98 µg/mL) |  |  |  | 30.7 (≈ 32 µg/mL) | 1.2 (≈ 1.25 µg/mL) |
